Tests used:
Format in all cases: in vivo
[1] = system: pigweed (Amaranthus retroflexus); experiment: Test A pre-/postemergence plant response
Outline: (§1)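 Seeds planted in loam soil/sand blend; test chemicals in non-phytotoxic solvent mixture with surfactant applied as directed soil spray preemergence and, concurrently, postemergence to plants 2–10 cm tall at one- to two-leaf stage. Greenhouse ~10 days; visual injury vs untreated controls, 0 (no effect) to 100 (complete control).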

corn (Zea mays) = experiment: Test A pre-/postemergence plant response
Outline: as §1

[2] = system: giant foxtail (Setaria faberii); experiment: Test A pre-/postemergence plant response
Outline: as §1

[3] = system: wheat (Triticum aestivum); experiment: Test A pre-/postemergence plant response
Outline: as §1

[4] = system: large crabgrass (Digitaria sanguinalis); experiment: Test A pre-/postemergence plant response
Outline: as §1

[5] = system: morningglory (Ipomoea spp.); experiment: Test A pre-/postemergence plant response
Outline: as §1

[6] = system: velvetleaf (Abutilon theophrasti); experiment: Test A pre-/postemergence plant response
Outline: as §1

[7] = system: barnyardgrass (Echinochloa crus-galli); experiment: Test A pre-/postemergence plant response
Outline: as §1

[8] = system: winter barley (Hordeum vulgare); experiment: Test B postemergence plant response
Outline: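 Visual ratings from 0 (no effect) to 100 (complete control), made against controls 13–15 days after treatment, kept in a greenhouse. Compounds were applied postemergence to potted plants at the 1- to 4-leaf stage (2–18 cm).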

rice (Oryza sativa) = experiment: Test B flooded paddy test; conditions: for Plant response rating, Flood, Rice: 250 g ai/ha, flooded paddy test, visual rating on 0 to 100 scale (0 no effect, 100 complete control) after 13 to 15 days; for Plant response rating, Rice: Flood (flooded paddy test), 13 to 15 days; for Rice plant response rating: Flood, scale 0 to 100 (0 no effect, 100 complete control)
Outline: (§2)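 Post-flood paddy application: compounds are introduced into water 3 cm deep over the soil, reaching plants at the 2-leaf stage. The water level is maintained, and after 13–15 days under greenhouse conditions, response is judged by eye relative to controls, where 100 means complete control.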

[9] = system: ducksalad (Heteranthera limosa); experiment: Test B flooded paddy test; conditions: for Plant response rating, Flood, Ducksalad: 250 g ai/ha, flooded paddy test, visual rating on 0 to 100 scale (0 no effect, 100 complete control) after 13 to 15 days; for Plant response rating, Ducksalad: Flood (flooded paddy test), 13 to 15 days
Outline: as §2

[10] = system: barnyardgrass (Echinochloa crus-galli); experiment: Test B flooded paddy test; conditions: for Plant response rating, Flood, Barnyardgrass: 250 g ai/ha, flooded paddy test, visual rating on 0 to 100 scale (0 no effect, 100 complete control) after 13 to 15 days; for Plant response rating, Barnyardgrass: Flood (flooded paddy test), 13 to 15 days; for Barnyardgrass plant response rating: Flood, scale 0 to 100 (0 no effect, 100 complete control)
Outline: as §2

[11] = system: umbrella sedge (Cyperus difformis); experiment: Test B flooded paddy test; conditions: for Plant response rating, Flood, Sedge, Umbrella: 250 g ai/ha, flooded paddy test, visual rating on 0 to 100 scale (0 no effect, 100 complete control) after 13 to 15 days; for Plant response rating, Sedge, Umbrella: Flood (flooded paddy test), 13 to 15 days; for Sedge, Umbrella plant response rating: Flood, scale 0 to 100 (0 no effect, 100 complete control)
Outline: as §2

[12] = Postemergence, 125 g ai/ha, visual injury, 0 to 100 scale (0 no effect, 100 complete control), approx. ten days
[13] = Postemergence, 500 g ai/ha, 0 to 100 scale, 0 = no effect, 100 = complete control, approx. ten days
[14] = Preemergence, 125 g ai/ha, 0 to 100 scale, 0 = no effect, 100 = complete control
[15] = Preemergence, 500 g ai/ha, visual injury, 0 to 100 scale (0 no effect, 100 complete control), approx. ten days
[16] = 31 g ai/ha, scale of 0 to 100 where 0 is no effect and 100 is complete control
[17] = 62 g ai/ha, scale of 0 to 100 where 0 is no effect and 100 is complete control
[18] = 125 g ai/ha, scale 0 to 100, 0 is no effect, 100 is complete control
[19] = Postemergence, 125 g ai/ha, 0 to 100 scale where 0 is no effect and 100 is complete control
[20] = Postemergence, 500 g ai/ha, visual injury, 0 to 100 scale (0 no effect, 100 complete control), approx. ten days
[21] = Preemergence, 500 g ai/ha, 0 to 100 scale, 0 = no effect, 100 = complete control
[22] = Postemergence, 31 g ai/ha, 0 to 100 scale (0 no effect, 100 complete control)
[23] = Postemergence, 125 g ai/ha, scale 0 to 100 (0 no effect, 100 complete control)
[24] = Postemergence, 250 g ai/ha, scale 0 to 100 (0 no effect, 100 complete control), 13 to 15 days

O=C1CCCC(O)=C1C(=O)c1cnc(-c2ccsc2)n(-c2ccccc2)c1=O [Compound 56]
Pigweed plant response rating [1, 12]: 90
Plant response rating, Pigweed [1, 13]: 100
Plant response rating, Pigweed [1, 14]: 90
Plant response rating, Pigweed [1, 15]: 100
Corn plant response rating (corn (Zea mays); [12]): 10
Plant response rating, Corn (corn (Zea mays); [13]): 50
Plant response rating, Corn (corn (Zea mays); [14]): 0
Plant response rating, Corn (corn (Zea mays); [15]): 0
Foxtail, Giant plant response rating [2, 12]: 80
Plant response rating, Foxtail, Giant [2, 13]: 90
Plant response rating, Foxtail, Giant [2, 14]: 70
Plant response rating, Foxtail, Giant [2, 15]: 90
Wheat plant response rating [3, 12]: 0
Plant response rating, Wheat [3, 13]: 0
Plant response rating, Wheat [3, 14]: 0
Plant response rating, Wheat [3, 15]: 0
Crabgrass, Large plant response rating [4, 12]: 80
Plant response rating, Crabgrass, Large [4, 13]: 90
Plant response rating, Crabgrass, Large [4, 14]: 80
Plant response rating, Crabgrass, Large [4, 15]: 90
Morningglory plant response rating [5, 12]: 90
Plant response rating, Morningglory [5, 13]: 100
Plant response rating, Morningglory [5, 14]: 50
Plant response rating, Morningglory [5, 15]: 90
Velvetleaf plant response rating [6, 12]: 100
Plant response rating, Velvetleaf [6, 13]: 100
Plant response rating, Velvetleaf [6, 14]: 80
Plant response rating, Velvetleaf [6, 15]: 100
Barnyardgrass plant response rating [7, 12]: 90
Plant response rating, Barnyardgrass [7, 13]: 90
Plant response rating, Barnyardgrass [7, 14]: 50
Plant response rating, Barnyardgrass [7, 15]: 90
Plant response rating, Barley ([8]; 31 g ai/ha, postemergence, scale 0 to 100, 0 is no effect, 100 is complete control): 0
Plant response rating, Barley ([8]; Postemergence, 62 g ai/ha, scale 0 (no effect) to 100 (complete control), 13 to 15 days): 10
Plant response rating, Barley ([8]; Postemergence, 125 g ai/ha, visual rating after 13 to 15 days, scale 0 (no effect) to 100 (complete control)): 30
Plant response rating, Flood, Rice (rice (Oryza sativa)): 20
Plant response rating, Rice (rice (Oryza sativa); [16]): 0
Plant response rating, Rice (rice (Oryza sativa); [17]): 0
Plant response rating, Rice (rice (Oryza sativa); [18]): 15
Plant response rating, Flood, Ducksalad [9]: 50
Plant response rating, Ducksalad [9, 16]: 0
Plant response rating, Ducksalad [9, 17]: 20
Plant response rating, Ducksalad [9, 18]: 40
Plant response rating, Flood, Barnyardgrass [10]: 35
Plant response rating, Barnyardgrass [10, 16]: 10
Plant response rating, Barnyardgrass [10, 17]: 15
Plant response rating, Barnyardgrass [10, 18]: 20
Plant response rating, Flood, Sedge, Umbrella [11]: 75
Plant response rating, Sedge, Umbrella [11, 16]: 30
Plant response rating, Sedge, Umbrella [11, 17]: 40
Plant response rating, Sedge, Umbrella [11, 18]: 60

Cc1ccc(Cl)cc1-n1c(-c2cccc(F)c2)ncc(C(=O)C2=C(O)CCCC2=O)c1=O [Compound 184]
Plant response rating, Pigweed [1, 19]: 100
Pigweed plant response rating [1, 20]: 100
Plant response rating, Pigweed [1, 14]: 70
Plant response rating, Pigweed [1, 21]: 90
Plant response rating, Corn (corn (Zea mays); [19]): 10
Corn plant response rating (corn (Zea mays); [20]): 80
Plant response rating, Corn (corn (Zea mays); [14]): 0
Plant response rating, Corn (corn (Zea mays); [21]): 20
Plant response rating, Foxtail, Giant [2, 19]: 90
Foxtail, Giant plant response rating [2, 20]: 100
Plant response rating, Foxtail, Giant [2, 14]: 30
Plant response rating, Foxtail, Giant [2, 21]: 90
Plant response rating, Wheat [3, 19]: 0
Wheat plant response rating [3, 20]: 50
Plant response rating, Wheat [3, 14]: 0
Plant response rating, Wheat [3, 21]: 0
Plant response rating, Crabgrass, Large [4, 19]: 80
Crabgrass, Large plant response rating [4, 20]: 100
Plant response rating, Crabgrass, Large [4, 14]: 30
Plant response rating, Crabgrass, Large [4, 21]: 100
Plant response rating, Morningglory [5, 19]: 50
Morningglory plant response rating [5, 20]: 100
Plant response rating, Morningglory [5, 14]: 10
Plant response rating, Morningglory [5, 21]: 60
Plant response rating, Velvetleaf [6, 19]: 100
Velvetleaf plant response rating [6, 20]: 100
Plant response rating, Velvetleaf [6, 14]: 80
Plant response rating, Velvetleaf [6, 21]: 100
Plant response rating, Barnyardgrass [7, 19]: 90
Barnyardgrass plant response rating [7, 20]: 100
Plant response rating, Barnyardgrass [7, 14]: 20
Plant response rating, Barnyardgrass [7, 21]: 90
Barley plant response rating (0 to 100 scale) ([8]; 62 g ai/ha, postemergence, 0 is no effect, 100 is complete control, 13 to 15 days): 40
Plant response rating, Barley [8, 22]: 5
Plant response rating, Barley [8, 23]: 60
Plant response rating, Barley [8, 24]: 60
Plant response rating, Flood, Rice (rice (Oryza sativa)): 15
Plant response rating, Rice (rice (Oryza sativa); [17]): 15
Plant response rating, Rice (rice (Oryza sativa); [18]): 15
Rice plant response rating (rice (Oryza sativa); 31 g ai/ha): 15
Plant response rating, Flood, Ducksalad [9]: 100
Plant response rating, Ducksalad [9, 17]: 100
Plant response rating, Ducksalad [9, 18]: 100
Ducksalad plant response rating ([9]; Flood, 31 g ai/ha, scale 0 to 100 (0 no effect, 100 complete control)): 95
Plant response rating, Flood, Barnyardgrass [10]: 25
Plant response rating, Barnyardgrass [10, 17]: 0
Plant response rating, Barnyardgrass [10, 18]: 20
Barnyardgrass plant response rating ([10]; 31 g ai/ha): 0
Plant response rating, Flood, Sedge, Umbrella [11]: 95
Plant response rating, Sedge, Umbrella [11, 17]: 80
Plant response rating, Sedge, Umbrella [11, 18]: 80
Sedge, Umbrella plant response rating ([11]; 31 g ai/ha): 65

CCCn1c(-c2ccsc2)ncc(C(=O)C2=C(O)C3CCC(C3)C2=O)c1=O (stereo not drawn) [Compound 227]
Plant response rating, Pigweed [1, 19]: 100
Pigweed plant response rating [1, 20]: 100
Plant response rating, Pigweed [1, 14]: 80
Plant response rating, Pigweed [1, 21]: 100
Plant response rating, Corn (corn (Zea mays); [19]): 10
Corn plant response rating (corn (Zea mays); [20]): 60
Plant response rating, Corn (corn (Zea mays); [14]): 0
Plant response rating, Corn (corn (Zea mays); [21]): 10
Plant response rating, Foxtail, Giant [2, 19]: 90
Foxtail, Giant plant response rating [2, 20]: 90
Plant response rating, Foxtail, Giant [2, 14]: 40
Plant response rating, Foxtail, Giant [2, 21]: 80
Plant response rating, Wheat [3, 19]: 0
Wheat plant response rating [3, 20]: 0
Plant response rating, Wheat [3, 14]: 0
Plant response rating, Wheat [3, 21]: 10
Plant response rating, Crabgrass, Large [4, 19]: 90
Crabgrass, Large plant response rating [4, 20]: 100
Plant response rating, Crabgrass, Large [4, 14]: 90
Plant response rating, Crabgrass, Large [4, 21]: 100
Plant response rating, Morningglory [5, 19]: 100
Morningglory plant response rating [5, 20]: 100
Plant response rating, Morningglory [5, 14]: 50
Plant response rating, Morningglory [5, 21]: 80
Plant response rating, Velvetleaf [6, 19]: 100
Velvetleaf plant response rating [6, 20]: 100
Plant response rating, Velvetleaf [6, 14]: 90
Plant response rating, Velvetleaf [6, 21]: 100
Plant response rating, Barnyardgrass [7, 19]: 90
Barnyardgrass plant response rating [7, 20]: 90
Plant response rating, Barnyardgrass [7, 14]: 50
Plant response rating, Barnyardgrass [7, 21]: 100
Plant response rating, Barley [8, 22]: 0
Plant response rating, Barley ([8]; Postemergence, 62 g ai/ha, scale 0 to 100 (0 no effect, 100 complete control)): 5
Plant response rating, Barley [8, 23]: 5
Plant response rating, Barley [8, 24]: 30
Plant response rating, Flood, Rice (rice (Oryza sativa)): 55
Plant response rating, Rice (rice (Oryza sativa); [17]): 30
Plant response rating, Rice (rice (Oryza sativa); [18]): 45
Rice plant response rating (rice (Oryza sativa); 31 g ai/ha): 20
Plant response rating, Flood, Ducksalad [9]: 80
Plant response rating, Ducksalad [9, 18]: 75
Plant response rating, Flood, Barnyardgrass [10]: 60
Plant response rating, Barnyardgrass [10, 17]: 40
Plant response rating, Barnyardgrass [10, 18]: 50
Barnyardgrass plant response rating ([10]; 31 g ai/ha): 20
Plant response rating, Flood, Sedge, Umbrella [11]: 85
Plant response rating, Sedge, Umbrella [11, 17]: 85
Plant response rating, Sedge, Umbrella [11, 18]: 85
Sedge, Umbrella plant response rating ([11]; 31 g ai/ha): 80
